Structures can show the parent of a compound that is named as a salt.
What follows are compounds tested on PMS1 (assay: Mini-Gene Reporter Assay—PMS1 (firefly luciferase mini-gene reporter transiently transfected into HEK293 cells)). Conditions: Homo sapiens; at 5 uM; mini-gene firefly luciferase reporter in HEK293 cells; read-out: PMS1 % Effect at 5 uM.
Format: cell-based
How it was run: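 HEK293 cells transiently transfected with a mini-gene construct (skipped exon with flanking introns/exons fused to firefly luciferase, pcDNA3.1) are incubated with compounds in duplicate. Exon inclusion raises luminescence; EC50 fitted by Levenberg-Marquardt; effect also scored at 5 μM.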

Compound	activation at 5 µM [%]
CCOc1cc2nn(C)cc2cc1C(=O)Nc1ccc(N2CCN(C(=O)OC(C)OC(=O)C(C)C)[C@@H](C)C2)nn1 (stereo partly drawn) [Compound 747, 1-(isobutyryloxy)ethyl (2S)-4-(6-(6-ethoxy-2-methyl-2H-indazole-5-carboxamido)pyridazin-3-yl)-2-methylpiperazine-1-carboxylate]	> 75
CCOc1cc2nc(C)cn2cc1C(=O)Nc1ccc(N2CC3CNCC3C2)nn1 (stereo not shown) [Compound 748, (7-ethoxy-N-(6-(hexahydropyrrolo[3,4-c]pyrrol-2(1H)-yl)pyridazin-3-yl)-2-methylimidazo[1,2-a]pyridine-6-carboxamide formate]	> 75
CCOc1cc2nn(C)cc2cc1C(=O)Nc1ccc(N2CCNCC2)nn1 [Compound 749, 6-ethoxy-2-methyl-N-(6-(piperazin-1-yl)pyridazin-3-yl)-2H-indazole-5-carboxamide hydrochloride]	> 75
CCOc1cc2nn(C)cc2cc1C(=O)Nc1ccc(N2CCN[C@H](C)C2)nn1 [Compound 750, (R)-6-ethoxy-2-methyl-N-(6-(3-methylpiperazin-1-yl)pyridazin-3-yl)-2H-indazole-5-carboxamide hydrochloride]	> 75
CCOc1cc2nn(C)cc2cc1C(=O)Nc1ccc(N2C[C@@H](C)N[C@@H](C)C2)nn1 [Compound 751, N-(6-((3S,5R)-3,5-dimethylpiperazin-1-yl)pyridazin-3-yl)-6-ethoxy-2-methyl-2H-indazole-5-carboxamide hydrochloride]	> 75

Same assay, conditions: Homo sapiens; mini-gene firefly luciferase reporter in HEK293 cells

IC50 [µM]	Compound
< 1	CCOc1cc2nn(C)cc2cc1C(=O)Nc1cnc(N2C[C@@H](C)N[C@@H](C)C2)cn1 [Compound 720, N-(5-((3R,5S)-3,5-dimethylpiperazin-1-yl)pyrazin-2-yl)-6-ethoxy-2-methyl-2H-indazole-5-carboxamide hydrochloride]
1 to 10	CCOc1nc2nc(C)cn2cc1C(=O)Nc1cnc(N2CCN[C@@H](C)C2)cn1 [Compound 722, (S)-7-ethoxy-2-methyl-N-(5-(3-methylpiperazin-1-yl)pyrazin-2-yl)imidazo[1,2-a]pyrimidine-6-carboxamide formate]
1 to 10	CCOc1cc2nc(C)cn2cc1C(=O)Nc1ccc(N2CC[C@@H](NC(C)(C)C)C2)nn1 [Compound 723, (R)—N-(6-(3-(tert-butylamino)pyrrolidin-1-yl)pyridazin-3-yl)-7-ethoxy-2-methylimidazo[1,2-a]pyridine-6-carboxamide]
1 to 10	CCOc1nc2nc(C)cn2cc1C(=O)Nc1ccc(N2CCNC3(CC3)C2)nn1 [Compound 725, N-(6-(4,7-diazaspiro[2.5]octan-7-yl)pyridazin-3-yl)-7-ethoxy-2-methylimidazo[1,2-a]pyrimidine-6-carboxamide formic acid]
1 to 10	COc1cn2nc(C)cc2cc1C(=O)Nc1ccc(N2CCN[C@@H](C)C2)nn1 [Compound 726, (S)-6-methoxy-2-methyl-N-(6-(3-methylpiperazin-1-yl)pyridazin-3-yl)pyrazolo[1,5-a]pyridine-5-carboxamide hydrochloride]
1 to 10	CCOc1cc2nn(C)cc2cc1C(=O)Nc1ccc(C2CCNCC2)nn1 [Compound 728, 6-ethoxy-2-methyl-N-(6-(piperidin-4-yl)pyridazin-3-yl)-2H-indazole-5-carboxamide hydrochloride]
1 to 10	CCOc1nc2nc(C)cn2cc1C(=O)Nc1ccc(N2CCN(C)CC2)nn1 [Compound 731, 7-ethoxy-2-methyl-N-(6-(4-methylpiperazin-1-yl)pyridazin-3-yl)imidazo[1,2-a]pyrimidine-6-carboxamide formic acid]
1 to 10	CCOc1cc2nn(C)cc2cc1C(=O)Nc1cnc(N2CCNC(C)(C)C2)cn1 [Compound 734, N-(5-(3,3-dimethylpiperazin-1-yl)pyrazin-2-yl)-6-ethoxy-2-methyl-2H-indazole-5-carboxamide hydrochloride]
1 to 10	COc1cc2nn(C)cc2cc1C(=O)Nc1cnc(N2CCN[C@@H](C)C2)cn1 [Compound 736, (S)-6-methoxy-2-methyl-N-(5-(3-methylpiperazin-1-yl)pyrazin-2-yl)-2H-indazole-5-carboxamide hydrochloride]
1 to 10	CCOc1cc2nc(C)cn2cc1C(=O)Nc1ccc(N2CCN(C)[C@@H](C)C2)nn1 [Compound 737, (S)—N-(6-(3,4-dimethylpiperazin-1-yl)pyridazin-3-yl)-7-ethoxy-2-methylimidazo[1,2-a]pyridine-6-carboxamide formate]
1 to 10	CCOc1cc2nn(C)cc2cc1C(=O)Nc1ccc(N2CCN3CCC[C@H]3C2)nn1 [Compound 738, (S)-6-ethoxy-N-(6-(hexahydropyrrolo[1,2-a]pyrazin-2(1H)-yl)pyridazin-3-yl)-2-methyl-2H-indazole-5-carboxamide]
1 to 10	CCOc1cc2nn(C)cc2cc1C(=O)Nc1ccc(N2CCN3CCC[C@@H]3C2)nn1 [Compound 739, (R)-6-ethoxy-N-(6-(hexahydropyrrolo[1,2-a]pyrazin-2(1H)-yl)pyridazin-3-yl)-2-methyl-2H-indazole-5-carboxamide formate]
1 to 10	CCOc1cc2nc(C)cn2cc1C(=O)Nc1ccc(N2C[C@@H](C)N(C)[C@@H](C)C2)nn1 [Compound 740, 7-ethoxy-2-methyl-N-(6-((3S,5R)-3,4,5-trimethylpiperazin-1-yl)pyridazin-3-yl)imidazo[1,2-a]pyridine-6-carboxamide]
1 to 10	CCOc1nc2nn(C)cc2cc1C(=O)Nc1cnc(N2CCNCC2)cn1 [Compound 742, 6-ethoxy-2-methyl-N-(5-(piperazin-1-yl)pyrazin-2-yl)-2H-pyrazolo[3,4-b]pyridine-5-carboxamide hydrochloride]
1 to 10	CCOc1cc2nc(C)cn2cc1C(=O)Nc1ccc(N2CC3CN(C)CC3C2)nn1 (stereo not shown) [Compound 745, 7-ethoxy-2-methyl-N-(6-(5-methylhexahydropyrrolo[3,4-c]pyrrol-2(1H)-yl)pyridazin-3-yl)imidazo[1,2-a]pyridine-6-carboxamide formate]

The remaining lines, values behind:

Compound	IC50 [µM]
CCOc1cc2nn(C)cc2cc1C(=O)Nc1ccc(C2CCN[C@@H](C)C2)nn1 (stereo partly drawn) [Compound 717, 6-ethoxy-2-methyl-N-(6-((2S)-2-methylpiperidin-4-yl)pyridazin-3-yl)-2H-indazole-5-carboxamide]	< 1
COc1cc2nc(C)cn2cc1C(=O)Nc1ccc(N2CCN[C@@H](C)C2)cn1 [Compound 718, (S)-7-methoxy-2-methyl-N-(5-(3-methylpiperazin-1-yl)pyridin-2-yl)imidazo[1,2-a]pyridine-6-carboxamide formate]	< 1
CCOc1cc2nc(C)cn2cc1C(=O)Nc1cnc(N2C[C@@H](C)N[C@@H](C)C2)cn1 [Compound 719, N-(5-((3S,5R)-3,5-dimethylpiperazin-1-yl)pyrazin-2-yl)-7-ethoxy-2-methylimidazo[1,2-a]pyridine-6-carboxamide]	< 1
CCOc1nc2nc(C)cn2cc1C(=O)Nc1cnc(N2C[C@@H](C)N[C@@H](C)C2)cn1 [Compound 721, N-(5-((3R,5S)-3,5-dimethylpiperazin-1-yl)pyrazin-2-yl)-7-ethoxy-2-methylimidazo[1,2-a]pyrimidine-6-carboxamide hydrochloride]	1 to 10
COc1cc2nc(C)cn2cc1C(=O)Nc1ccc(N2C[C@@H](C)N[C@@H](C)C2)cn1 [Compound 724, N-(5-((3R,5S)-3,5-dimethylpiperazin-1-yl)pyridin-2-yl)-7-methoxy-2-methylimidazo[1,2-a]pyridine-6-carboxamide]	1 to 10
CCOc1cc2nc(C)cn2cc1C(=O)Nc1ccc(N2CCN(C)CC2)nn1 [Compound 729, 7-ethoxy-2-methyl-N-(6-(4-methylpiperazin-1-yl)pyridazin-3-yl)imidazo[1,2-a]pyridine-6-carboxamide]	1 to 10
CCOc1nc2nn(C)cc2cc1C(=O)Nc1ccc(N2CCNCC2)cn1 [Compound 730, 6-ethoxy-2-methyl-N-(5-(piperazin-1-yl)pyridin-2-yl)-2H-pyrazolo[3,4-b]pyridine-5-carboxamide]	1 to 10
CCOc1nc2nc(C)cn2cc1C(=O)Nc1ccc(N2CCNCC2)nn1 [Compound 732, 7-ethoxy-2-methyl-N-(6-(piperazin-1-yl)pyridazin-3-yl)imidazo[1,2-a]pyrimidine-6-carboxamide formate]	1 to 10
CCOc1cc2nc(C)cn2cc1C(=O)Nc1ccc(N2CCC(NC(C)(C)C)C2)nn1 (stereo not shown) [Compound 733, N-(6-(3-(tert-butylamino)pyrrolidin-1-yl)pyridazin-3-yl)-7-ethoxy-2-methylimidazo[1,2-a]pyridine-6-carboxamide]	1 to 10
COc1cc2nc(C)cn2cc1C(=O)Nc1ccc(C2CCNCC2)cn1 [Compound 735, 7-methoxy-2-methyl-N-(5-(piperidin-4-yl)pyridin-2-yl) imidazo[1,2-a]pyridine-6-carboxamide hydrochloride]	1 to 10
CCOc1cc2nc(C)cn2cc1C(=O)Nc1cc(C)c(N2CCN[C@@H](C)C2)nn1 [Compound 741, (S)-7-ethoxy-2-methyl-N-(5-methyl-6-(3-methylpiperazin-1-yl)pyridazin-3-yl)imidazo[1,2-a]pyridine-6-carboxamide formate]	1 to 10
CCOc1cc2nn(C)cc2cc1C(=O)Nc1cnc(N2CCN(C)[C@@H](C)C2)cn1 [Compound 743, (S)—N-(5-(3,4-dimethylpiperazin-1-yl)pyrazin-2-yl)-6-ethoxy-2-methyl-2H-indazole-5-carboxamide formate]	1 to 10
CCOc1cn2nc(C)cc2cc1C(=O)Nc1cnc(N2C[C@@H](C)N[C@@H](C)C2)cn1 [Compound 744, N-(5-((3S,5R)-3,5-dimethylpiperazin-1-yl)pyrazin-2-yl)-6-ethoxy-2-methylpyrazolo[1,5-a]pyridine-5-carboxamide hydrochloride]	1 to 10
COc1cc2nn(C)cc2cc1C(=O)Nc1cnc(N2CCNCC2)cn1 [Compound 746, 6-methoxy-2-methyl-N-(5-(piperazin-1-yl)pyrazin-2-yl)-2H-indazole-5-carboxamide formate]	1 to 10

Source: patent US20250066389A1, “HETEROCYCLIC AMIDES AND METHODS OF USING THE SAME” (Rgenta Therapeutics, Inc., priority 2021, published 2025)
